Measurements as given in patent US5753458A, “Acylation method for penicillins and cephalosporins” (Gist-Brocades B.V., priority 1994, dated 1998).
Where a name gives a salt, the structure may show the parent alone.

Experiments:
[1] = Solubility of acylating agent in aqueous system; type: physicochemical; conditions: aqueous system as used in the examples; dependent on salts, pH, temperature
Excerpt: The solubility of the acylating agent such as the D-phenylglycine or D-p-hydroxyphenylglycine derivative or originating from the D,L mixtures as described in EP-A-339751, will vary with the identity of the derivative and with the composition of the reaction medium. […] However, the solubility is very dependent on the salt components in the solution, as well as on the pH value and the temperature of the solution. In some embodiments of the process of this invention, the initial reaction mixture is a slurry containing undissolved acylating agent and/or amino β-lactam, which will dissolve partly or fully during the course of the reaction. The β-lactam antibiotic formed may precipitate during the reaction and, also, the hydrolysis products of the acylating agent such as D-phenylglycine and D-p-hydroxyphenylglycine, may precipitate.

[2] = target: T1, immobilized penicillin G acylase from E. coli (Escherichia coli, UniProt P06875); experiment: Enzymatic amoxicillin synthesis with immobilized Pen G acylase and various enzyme modulators (Example 8); type: biochemical; conditions: standard synthesis conditions; enzyme 13 U/ml
T1 sequence (P06875 27-235): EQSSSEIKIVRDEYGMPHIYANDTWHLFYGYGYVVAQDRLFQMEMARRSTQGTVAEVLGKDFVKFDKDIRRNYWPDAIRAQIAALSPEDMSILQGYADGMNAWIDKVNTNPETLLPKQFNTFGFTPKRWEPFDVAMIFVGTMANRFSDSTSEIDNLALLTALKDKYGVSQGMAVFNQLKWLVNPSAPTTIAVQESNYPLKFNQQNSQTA
T1 sequence (P06875 290-846): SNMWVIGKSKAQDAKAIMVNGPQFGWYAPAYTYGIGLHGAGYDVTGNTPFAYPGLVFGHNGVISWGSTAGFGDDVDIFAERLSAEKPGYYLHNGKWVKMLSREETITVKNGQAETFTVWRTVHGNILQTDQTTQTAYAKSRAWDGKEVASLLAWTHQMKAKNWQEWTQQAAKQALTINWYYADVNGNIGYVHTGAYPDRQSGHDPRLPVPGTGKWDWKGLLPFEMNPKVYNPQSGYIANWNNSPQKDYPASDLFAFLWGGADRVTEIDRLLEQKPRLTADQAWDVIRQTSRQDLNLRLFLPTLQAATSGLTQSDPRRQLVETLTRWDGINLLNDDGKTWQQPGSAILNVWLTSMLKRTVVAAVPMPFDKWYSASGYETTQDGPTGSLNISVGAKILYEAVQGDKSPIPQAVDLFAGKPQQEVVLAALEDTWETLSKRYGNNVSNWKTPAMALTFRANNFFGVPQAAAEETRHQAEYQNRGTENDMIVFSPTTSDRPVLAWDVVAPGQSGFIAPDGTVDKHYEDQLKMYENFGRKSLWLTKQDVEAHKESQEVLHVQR
Excerpt: (§1) The ratio X is defined as the number of moles of D-HPGA consumed per mole of Amox produced. For practical use this can be transformed to X=1+moles D-HPG/moles Amox, wherein "moles D-HPG" is the molar amount of D-HPG produced by hydrolysis of the acylating agent and the desired product and "moles Amox" is the molar amount of Amox present in the reaction mixture. Thus, if X is 1 this means that only the desired synthesis takes place, no hydrolysis. If X is 2, this means that D-HPG and Amox are formed in equal amounts (on a molar basis). If X is 3, this means that twice as much D-HPG as Amox is present in the reaction mixture (on a molar basis). The ratio X can be calculated at any time during reaction, but in the following examples X is calculated at the reaction stop time, which is defined as the time at which 90 % of the theoretical yield of Amox is present in the reaction mixture (based on the inserted amount of 6-APA). Square brackets are used to designate molar concentrations.
(§2) In Examples 1-8 the following standard conditions for enzymatic amoxicillin synthesis have been used (see patent application No. WO 92/01061 for further details):
(§3) During the reactions, the pH value of the reaction mixtures was kept constant by titration with 2M sulphuric acid.
(§4) Representative samples of the reaction mixtures including solid constituents were taken at regular intervals during the reactions and analyzed by HPLC.
The compounds listed below improve synthesis performance (standard synthesis conditions, immobilized penicillin G acylase from E. coli; enzyme dosing 13 U/ml) in the sense that when they are present in the reaction mixture in a concentration within the interval specified, synthesis of the desired β-lactam antibiotic is favoured as compared to hydrolysis of the acylating agent: […]

[3] = target: T1, immobilized penicillin G acylase from E. coli; experiment: Enzymatic amoxicillin synthesis with immobilized Pen G acylase, L-(+)-mandelic acid varied (Example 6); type: biochemical; conditions: enzyme 12.0 U/ml
Excerpt: (§5) V0 (Amox) is the initial velocity of Amox formation, and V0 (D-HPG) is the initial velocity of D-HPG formation, specified as μmoles/min/g enzyme, μmoles/min/ml reaction mixture, or nmoles/min/U (enzyme activity).
as §1, §2, §3, §4
A standard synthesis (immobilized penicillin G acylase from E. coli; enzyme dosing 12.0 U/ml) was carried out with no L-(+)-mandelic acid added.
Same conditions as in Experiment A were employed, except that L-(+)-mandelic acid was added to the reaction mixture at the beginning of the experiment in amounts as specified in Table 6. A side product obtained was α-hydroxybenzylpenicillin.

[4] = target: T1, immobilized penicillin G acylase from E. coli; experiment: Enzymatic amoxicillin synthesis with immobilized Pen G acylase, Phox concentration varied (Example 1); type: biochemical; conditions: enzyme 8.6 U/ml
Excerpt: as §5, §1, §3, §4

[5] = target: T2, agarose based penicillin G acylase immobilizate (Escherichia coli, UniProt P06875); experiment: Enzymatic amoxicillin synthesis with varying enzyme amounts and constant Phox (Example 4); type: biochemical; conditions: [Phox] 31 μM
T2 construct: processed alpha/beta heterodimer cut from one precursor (signal and spacer peptides removed)
T2 sequence (P06875 290-846): as above
T2 sequence (P06875 27-235): as the sequence (P06875 27-235) above
Excerpt: as §5, §1, §3, §4
An agarose based penicillin G acylase immobilizate was employed in the following experiments. The immobilizate which was kept in water was drained of excess water on a filter by applying suction for 1 min.

[6] = target: T3, Boehringer Mannheim immobilized penicillin G acylase, experimental preparation (Escherichia coli, UniProt P06875); experiment: Enzymatic amoxicillin synthesis with immobilized Pen G acylase, 2-thiopheneacetic acid varied (Example 7); type: biochemical; conditions: enzyme 12 U/ml
T3 construct: purchased Boehringer Mannheim (experimental preparation)
T3 sequence (P06875 27-235): as above
T3 sequence (P06875 290-846): as the sequence (P06875 290-846) above
Excerpt: as §5, §1, §2, §3, §4
A standard synthesis (Boehringer Mannheim immobilized penicillin G acylase, experimental preparation; enzyme dosing 12 U/ml) was carried out with no 2-thiopheneacetic acid added.
Same conditions as in Experiment A were employed, except that 2-thiopheneacetic acid was added to the reaction mixture at the beginning of the experiment in amounts as specified in Table 7.

[7] = target: T1, immobilized penicillin G acylase from E. coli; experiment: Enzymatic amoxicillin synthesis with immobilized Pen G acylase, Phyl concentration varied (Example 2); type: biochemical; conditions: [Phox] 2.6 μM, enzyme 8.6 U/ml
Excerpt: as §5, §1, §2, §3, §4
A standard synthesis (immobilized penicillin G acylase from E. coli; enzyme dosing 8.6 U/ml) was carried out with no Phyl added.
Same conditions as in Experiment A were employed, except that Phyl was added to the reaction mixture at the beginning of the experiment in amounts so that the concentrations specified in Table 2 were obtained.

[8] = Exp B, [L-(+)-Mandelic acid] 0.64 mM
[9] = Exp C, [L-(+)-Mandelic acid] 3.3 mM
[10] = Exp D, [L-(+)-Mandelic acid] 6.7 mM
[11] = Exp E, [L-(+)-Mandelic acid] 13.3 mM
[12] = Exp F, [L-(+)-Mandelic acid] 14.2 mM
[13] = Exp G, [L-(+)-Mandelic acid] 36.1 mM
[14] = Exp A, [Phox] 2.6 μM (residual, none added)
[15] = Exp B, [Thiopheneacetic acid] 0.03 mM
[16] = Exp C, [Thiopheneacetic acid] 0.3 mM

## NC(=O)[C@H](N)c1ccccc1 [hydrochloride of D-phenylglycine amide, D-phenylglycine amide]
[1]
  solubility: approximately 450 mM

## CC1(C)[C@H](C(=O)O)N2C(=O)[C@@H](NC(=O)Cc3ccccc3)[C@H]2[S+]1[O-] (stereo partly drawn) [Penicillin G sulfoxide]
[2]
  Concentration interval where improvement of ratio X is found: 2 to 500 µM

## CC1(C)S[C@@H]2[C@H](NC(=O)COc3ccccc3)C(=O)N2[C@H]1C(=O)O [Penicillin V]
[2]
  Concentration interval where improvement of ratio X is found: 2-1000 μm

## O=C(O)[C@@H](O)c1ccccc1 [L-(+)-Mandelic acid, L-(+)-mandelic acid]
[3]; [8]
  Initial velocity V0 (Amox): 156 nmoles/min/U
  Initial velocity V0 (D-HPG): 207 nmoles/min/U
  Reaction stop time: 2.4 h
  X at reaction stop time: 2.9
[3]; [9]
  Initial velocity V0 (Amox): 137 nmoles/min/U
  Initial velocity V0 (D-HPG): 174 nmoles/min/U
  Reaction stop time: 2.8 h
  X at reaction stop time: 2.8
[3]; [10]
  Initial velocity V0 (Amox): 119 nmoles/min/U
  Initial velocity V0 (D-HPG): 146 nmoles/min/U
  Reaction stop time: 3.0 h
  X at reaction stop time: 2.65
[3]; [11]
  Initial velocity V0 (Amox): 89 nmoles/min/U
  Initial velocity V0 (D-HPG): 110 nmoles/min/U
  Reaction stop time: 4.7 h
  X at reaction stop time: 2.65
[3]; [12]
  Initial velocity V0 (Amox): 80 nmoles/min/U
  Initial velocity V0 (D-HPG): 106 nmoles/min/U
  Reaction stop time: 4.2 h
  X at reaction stop time: 2.8
[3]; [13]
  Initial velocity V0 (Amox): 49 nmoles/min/U
  Initial velocity V0 (D-HPG): 68 nmoles/min/U
  Reaction stop time: 5.5 h
  X at reaction stop time: 2.8
[3]; under the conditions chosen
  optimal concentration with respect to minimization of the ratio X: 3.3 to 14.2 mM

## O=[N+]([O-])c1ccc(O)c(CBr)c1 [2-Hydroxy-5-nitrobenzyl bromide]
[2]
  Concentration interval where improvement of ratio X is found: 10 to 500 µM

## O=C(O)COc1ccc(O)cc1 [p-Hydroxyphenoxyacetic acid]
[2]
  Concentration interval where improvement of ratio X is found: 2 to 500 µM

## O=C(O)CSc1ccccc1 [(Phenylthio)acetic acid]
[2]
  Concentration interval where improvement of ratio X is found: 2 to 1000 µM

## O=C(O)COc1ccccc1 [Phox, phenoxyacetic acid]
[4]; [14]
  Initial velocity V0 (Amox): 17.7 µmol/min/g
  Initial velocity V0 (D-HPG): 25.0 µmol/min/g
  Reaction stop time: 2.1 h
  X at reaction stop time: 2.9
[4]; Exp B, [Phox] 9.9 μM
  Initial velocity V0 (Amox): 13.1 µmol/min/g
  Initial velocity V0 (D-HPG): 16.5 µmol/min/g
  Reaction stop time: 3.3 h
  X at reaction stop time: 2.7
[4]; Exp C, [Phox] 16.8 μM
  Initial velocity V0 (Amox): 11.9 µmol/min/g
  Initial velocity V0 (D-HPG): 13.8 µmol/min/g
  Reaction stop time: 4.1 h
  X at reaction stop time: 2.55
[4]; Exp D, [Phox] 31.0 μM
  Initial velocity V0 (Amox): 8.8 µmol/min/g
  Initial velocity V0 (D-HPG): 8.8 µmol/min/g
  Reaction stop time: 5.7 h
  X at reaction stop time: 2.35
[4]; Exp E, [Phox] 61.7 μM
  Initial velocity V0 (Amox): 6.5 µmol/min/g
  Initial velocity V0 (D-HPG): 5.4 µmol/min/g
  Reaction stop time: 9.5 h
[5]; Exp A, enzyme dosage 11.9 U/ml
  Initial velocity V0 (Amox): 1.17 µmol/min/mL
  X at stop time: 1.75
[5]; Exp B, enzyme dosage 23.8 U/ml
  Initial velocity V0 (Amox): 2.97 µmol/min/mL
  Initial velocity V0 (D-HPG): 1.85 µmol/min/mL
[5]; Exp C, enzyme dosage 47.5 U/ml
  Initial velocity V0 (D-HPG): ca. 5.6 μmoles/min/ml
  X at stop time: ca. 2.0

## O=C(O)Cc1cccs1 [Thiopheneacetic acid, 2-thiopheneacetic acid]
[6]; [15]
  Initial velocity V0 (Amox): 1.68 µmol/min/mL
  Initial velocity V0 (D-HPG): 1.95 µmol/min/mL
  Reaction stop time: 2.3 h
  X at reaction stop time: 2.7
[6]; [16]
  Initial velocity V0 (Amox): 0.15 µmol/min/mL
  Initial velocity V0 (D-HPG): 0.058 µmol/min/mL
  Reaction stop time: 12 h
  X at reaction stop time: 1.6

## O=C(O)Cc1ccccc1 [Phyl, phenylacetic acid]
[7]; Exp B, [Phyl] 32.9 μM
  Initial velocity V0 (Amox): 10.8 µmol/min/g
  Initial velocity V0 (D-HPG): 13.8 µmol/min/g
  Reaction stop time: 4.2 h
  X at reaction stop time: 2.7
[7]; Exp C, [Phyl] 63.3 μM
  Initial velocity V0 (Amox): 8.1 µmol/min/g
  Initial velocity V0 (D-HPG): 8.8 µmol/min/g
  Reaction stop time: 5.1 h
  X at reaction stop time: 2.5
[7]; Exp D, [Phyl] 127 μM
  Initial velocity V0 (Amox): 5.2 µmol/min/g
  Initial velocity V0 (D-HPG): 5.4 µmol/min/g
  Reaction stop time: 5.8 h
  X at reaction stop time: 2.2

## CC1(C)S[C@@H]2[C@H](NC(=O)Cc3ccccc3)C(=O)N2[C@H]1C(=O)O [Penicillin G]
[2]
  Concentration interval where improvement of ratio X is found: 2 to 1000 µM

## O=S(=O)(F)Cc1ccccc1 [Phenylmethylsulfonyl fluoride]
[2]
  Concentration interval where improvement of ratio X is found: 0.2 to 10 µM
